From ChEMBL document CHEMBL4359894, “Novel class of 7-Oxabicyclo[2.2.1]heptene sulfonamides with long alkyl chains displaying improved estrogen receptor α degradation activity” (Eur J Med Chem, 2019) come the findings set out here.

One may read the IC50 as the concentration needed to halve the response being measured. A higher IC50 goes with weaker potency in that assay.

Series [1] concerns the target T1, Estrogen receptor (Homo sapiens) (UniProt P03372).
T1 sequence (whole entry): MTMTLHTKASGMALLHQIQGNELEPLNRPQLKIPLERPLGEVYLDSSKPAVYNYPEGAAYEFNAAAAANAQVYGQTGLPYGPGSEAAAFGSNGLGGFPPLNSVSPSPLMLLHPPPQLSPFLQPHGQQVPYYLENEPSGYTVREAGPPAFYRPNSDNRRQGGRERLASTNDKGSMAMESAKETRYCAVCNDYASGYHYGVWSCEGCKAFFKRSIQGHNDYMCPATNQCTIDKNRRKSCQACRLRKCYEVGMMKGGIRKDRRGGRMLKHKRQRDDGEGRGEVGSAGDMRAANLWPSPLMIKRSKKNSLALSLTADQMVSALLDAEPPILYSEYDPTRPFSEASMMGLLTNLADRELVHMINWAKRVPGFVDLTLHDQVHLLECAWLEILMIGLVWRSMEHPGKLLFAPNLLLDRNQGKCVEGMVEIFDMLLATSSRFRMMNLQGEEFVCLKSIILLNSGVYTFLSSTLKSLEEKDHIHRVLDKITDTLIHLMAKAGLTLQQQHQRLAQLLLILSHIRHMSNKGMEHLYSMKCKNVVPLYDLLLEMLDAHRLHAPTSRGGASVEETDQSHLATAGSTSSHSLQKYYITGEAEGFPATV
As to the kind of experiment: Binding affinity to ERalpha (unknown origin) by competitive fluorometric receptor binding assay relative to estradiol.

Series [2] has as its target Estrogen receptor beta (Homo sapiens) (UniProt Q92731). As to the kind of experiment: Binding affinity to ERbeta (unknown origin) by competitive fluorometric receptor binding assay relative to estradiol.
The next series deals with MCF7. The series is described as follows: Antiproliferative activity against human MCF7 cell incubated for 72 hrs by MTT assay. The class given is functional, cell-based. The settings on record: MCF7, 72 h. (In general: Formazan colour is commonly taken as a measure of viable cells.)
For the next series, the system named is MCF-10A. As to the kind of experiment: Cytotoxicity against human MCF10A cell incubated for 72 hrs by MTT assay. The format is cell-based.
The nature of series [3]: Therapeutic index, ratio of IC50 for cytotoxicity against human MCF10A cells to IC50 for antiproliferative activity against human MCF7 cells. The format is toxicity, cell-based. The settings on record: read-out: Ratio IC50.

Estrogen receptor beta (Homo sapiens), sequence (Q92731 whole entry): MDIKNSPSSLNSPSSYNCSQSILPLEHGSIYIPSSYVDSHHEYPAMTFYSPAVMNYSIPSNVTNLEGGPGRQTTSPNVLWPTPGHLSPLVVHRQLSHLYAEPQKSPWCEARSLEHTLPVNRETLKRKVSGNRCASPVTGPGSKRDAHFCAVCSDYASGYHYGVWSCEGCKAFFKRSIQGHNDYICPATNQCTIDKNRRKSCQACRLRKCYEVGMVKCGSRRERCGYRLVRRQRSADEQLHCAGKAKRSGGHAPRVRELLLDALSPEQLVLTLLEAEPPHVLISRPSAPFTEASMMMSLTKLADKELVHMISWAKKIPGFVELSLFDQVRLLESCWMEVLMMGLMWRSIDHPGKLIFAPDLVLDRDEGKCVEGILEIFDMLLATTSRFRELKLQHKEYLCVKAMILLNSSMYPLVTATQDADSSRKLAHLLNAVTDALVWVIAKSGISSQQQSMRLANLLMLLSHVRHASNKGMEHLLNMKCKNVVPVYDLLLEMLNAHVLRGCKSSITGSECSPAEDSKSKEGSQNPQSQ

In the case of `CCCCCCCCOc1ccc(C2=C(c3ccc(O)cc3)[C@H]3O[C@@H]2C[C@@H]3S(=O)(=O)N(CC(F)(F)F)c2ccc(Cl)cc2)cc1`, the relative binding affinity (RBA) in series [1] turned out to be 0.59; in series [2], 0.03. In addition, the IC50 is 2.72 µM in the series with MCF7 and 84.2 µM in the series on MCF-10A. Besides, the selectivity ratio in series [3] was found to be 30.9.
The corresponding values for `CCCCCCCCOc1ccc(C2=C(c3ccc(O)cc3)[C@H]3C[C@H](S(=O)(=O)N(CC)c4ccccc4)[C@@H]2O3)cc1` (racemic) are 0.55, 0.02, 5.89 µM, 59.4 µM and 10.
Turning to `CCCCOc1ccc(C2=C(c3ccc(O)cc3)[C@H]3O[C@@H]2C[C@@H]3S(=O)(=O)N(CC)c2ccccc2)cc1` (relative stereo), the relative binding affinity (RBA) in series [1] amounted to 3.12; in series [2], 0.04. In addition, the figures for the IC50 in the series with MCF7 and in the series on MCF-10A were 1.82 µM and 32.8 µM, respectively. For the same compound, the selectivity ratio in series [3] was 18.
Turning to `CCCCCCOc1ccc(C2=C(c3ccc(O)cc3)[C@H]3O[C@@H]2C[C@@H]3S(=O)(=O)N(CC(F)(F)F)c2ccc(Cl)cc2)cc1` (relative stereo), the values for the relative binding affinity (RBA) in series [1] and in series [2] were 3.49 and 0.02, respectively. Besides, the concentration for half-maximal inhibition (IC50) came to 1.38 µM in the series on MCF7 and 39.7 µM in the series on MCF-10A. In addition, the selectivity ratio in series [3] came out at 28.7.
As for `CCCCCCCCCCOc1ccc(C2=C(c3ccc(O)cc3)[C@H]3C[C@H](S(=O)(=O)N(CC(F)(F)F)c4ccc(Cl)cc4)[C@@H]2O3)cc1` (relative stereo), the relative binding affinity (RBA) in series [1] was 0.25; in series [2], 0.11. The IC50 in the series with MCF7 was 51.2 µM; in the series on MCF-10A, more than 100 µM. Besides, the selectivity ratio in series [3] was more than 1.9.
Regarding `CCCCCCCCCCCCOc1ccc(C2=C(c3ccc(O)cc3)[C@H]3O[C@@H]2C[C@@H]3S(=O)(=O)N(CC(F)(F)F)c2ccc(OC)cc2)cc1` (relative stereo), the relative binding affinity (RBA) in series [1] amounted to 0.32; in series [2] it was 0.01. The IC50 was 86.7 µM in the series on MCF7 and more than 100 µM in the series on MCF-10A. Also, in series [3], the selectivity ratio is more than 1.1.
For `CCCCCCCCOc1ccc(C2=C(c3ccc(O)cc3)[C@H]3O[C@@H]2C[C@@H]3S(=O)(=O)N(CC(F)(F)F)c2ccc(OC)cc2)cc1` (relative stereo), the relative binding affinity (RBA) amounted to 1.59 in series [1] and 0.15 in series [2]. The 50% inhibitory concentration (IC50) was 2.39 µM in the series with MCF7 and 42.8 µM in the series on MCF-10A. Besides, the selectivity ratio in series [3] came out at 17.9.
Regarding `CCCCCCOc1ccc(C2=C(c3ccc(O)cc3)[C@H]3O[C@@H]2C[C@@H]3S(=O)(=O)N(CC)c2ccccc2)cc1` (relative stereo), the values for the relative binding affinity (RBA) in series [1] and in series [2] were 2.51 and 0.53, respectively. The IC50 was 0.97 µM in the series with MCF7 and 42.6 µM with MCF-10A. For the same compound, the selectivity ratio in series [3] was determined as 43.9.
Turning to `CCCCCCCCCCOc1ccc(C2=C(c3ccc(O)cc3)[C@H]3C[C@H](S(=O)(=O)N(CC(F)(F)F)c4ccc(OC)cc4)[C@@H]2O3)cc1` (relative stereo), the values for the relative binding affinity (RBA) in series [1] and in series [2] were 0.85 and 0.6, respectively. The values for the half-inhibitory concentration (IC50) in the series with MCF7 and in the series on MCF-10A were 31.8 µM and more than 100 µM, respectively. Also, the selectivity ratio in series [3] was more than 3.1.
With `CCCCOc1ccc(C2=C(c3ccc(O)cc3)[C@H]3C[C@H](S(=O)(=O)N(CC(F)(F)F)c4ccc(Cl)cc4)[C@@H]2O3)cc1` (relative stereo), the relative binding affinity (RBA) in series [1] came out at 4.25; in series [2], 0.05. The values for the IC50 in the series on MCF7 and in the series on MCF-10A were 2.95 µM and 45.8 µM, respectively. Besides, the selectivity ratio in series [3] amounted to 15.5.
Regarding `CCCCCCCCCCOc1ccc(C2=C(c3ccc(O)cc3)[C@H]3O[C@@H]2C[C@@H]3S(=O)(=O)N(CC(F)(F)F)c2ccc(Cl)cc2)cc1` (relative stereo), the figures for the relative binding affinity (RBA) in series [1] and in series [2] were 0.57 and 0.01, respectively. In addition, the IC50 in the series on MCF7 is 21.2 µM; with MCF-10A it was more than 100 µM. In series [3], the selectivity ratio is more than 4.7.
As to `CCCCCCOc1ccc(C2=C(c3ccc(O)cc3)[C@H]3C[C@H](S(=O)(=O)N(CC(F)(F)F)c4ccc(Cl)cc4)[C@@H]2O3)cc1` (relative stereo), the relative binding affinity (RBA) in series [1] was 4.14; in series [2], 0.04. For the same compound, the 50% inhibitory concentration (IC50) was determined as 2.89 µM in the series on MCF7 and 57.5 µM in the series with MCF-10A. The selectivity ratio in series [3] was 19.8.
For `CCCCCCCCCCOc1ccc(C2=C(c3ccc(O)cc3)[C@H]3O[C@@H]2C[C@@H]3S(=O)(=O)N(CC(F)(F)F)c2ccc(OC)cc2)cc1` (relative stereo), in that order: 1.35, 0.02, 25.3 µM, more than 100 µM and more than 3.9.
As to `CCCCOc1ccc(C2=C(c3ccc(O)cc3)[C@H]3O[C@@H]2C[C@@H]3S(=O)(=O)N(CC(F)(F)F)c2ccc(Cl)cc2)cc1` (relative stereo), the relative binding affinity (RBA) in series [1] stood at 1.13; in series [2], 0.16. Moreover, the IC50 with MCF7 worked out at 3.22 µM; with MCF-10A, 47.4 µM. The selectivity ratio in series [3] stood at 14.7.
For `CCCCCCOc1ccc(C2=C(c3ccc(O)cc3)[C@H]3C[C@H](S(=O)(=O)N(CC)c4ccccc4)[C@@H]2O3)cc1` (relative stereo), in that order: 2.99, 0.35, 3.45 µM, more than 100 µM and more than 28.9.
As to `CCCCOc1ccc(C2=C(c3ccc(O)cc3)[C@H]3C[C@H](S(=O)(=O)N(CC)c4ccccc4)[C@@H]2O3)cc1` (relative stereo), the relative binding affinity (RBA) in series [1] stood at 3.26; in series [2] it was 0.05. For the same compound, the IC50 in the series on MCF7 was 3.29 µM; in the series on MCF-10A, 59.2 µM. In series [3], the selectivity ratio came out at 17.9.
Consider `CCCCCCCCOc1ccc(C2=C(c3ccc(O)cc3)[C@H]3C[C@H](S(=O)(=O)N(CC(F)(F)F)c4ccc(Cl)cc4)[C@@H]2O3)cc1` (relative stereo), for which the relative binding affinity (RBA) in series [1] amounted to 2.36; in series [2] it was 0.04. The IC50 in the series with MCF7 was 5.22 µM; in the series on MCF-10A it was more than 100 µM. Moreover, the selectivity ratio in series [3] is more than 19.1.
For `CCCCCCCCOc1ccc(C2=C(c3ccc(O)cc3)[C@H]3C[C@H](S(=O)(=O)N(CC(F)(F)F)c4ccc(OC)cc4)[C@@H]2O3)cc1` (relative stereo), in that order: 1.08, 0.32, 2.21 µM, more than 100 µM and more than 45.2.
In the case of `CCCCCCCCCCCCOc1ccc(C2=C(c3ccc(O)cc3)[C@H]3C[C@H](S(=O)(=O)N(CC(F)(F)F)c4ccc(OC)cc4)[C@@H]2O3)cc1` (relative stereo), the relative binding affinity (RBA) was 0.06 in series [1] and 0.15 in series [2]. The IC50 with MCF7 and with MCF-10A was more than 100 µM in each case.
